Measured values taken from patent publication US6368788B1 (priority 1987, dated 2002).
Several values for one entry are separate records, joined by “and”; a condition that tells them apart may be missing. Equal values may be shown once. Marks after values point to notes of the source that are not given here.

What was measured:
[1] = tested on: lymphocytes of lymphoid organs; experiment: Immune indices (E-RFC, EA-RFC, EAC-RFC) in healthy guinea pigs; assay type: in vivo; conditions: for E-RFC / EA-RFC / EAC-RFC: healthy guinea pigs, 1 mg/kg im daily 5 days, day 10
Description: Immune parameters were investigated in healthy male guinea pigs ([…]) following administration of test or control agents. Each test and control group consisted of 10 animals. […] Physiological saline was administered im to the animals of the control group. The affects of these treatments were determined on day 10 (i.e., 5 days after the last injection) by preparing cells from peripheral blood (PBL), thymus (TYM), lymph nodes (LN), spleen (SPL), and red pulp of bone marrow (BM). Cells were tested for antibody Fc receptors (EA-RFC), complement receptors (EAC-RFC), T-lymphocytes, “active” T-lymphocytes (E-RFC), B-lymphocytes (EA-RFC and EAC-RFC; according to the method of Bianco, C., et al., J. Exp. Med. 132(4):702-720 (1970). The results of these analyses are shown in TABLES 53-54, below, where data are expressed either as the number of RFC×10^9 per liter of blood, or RFC×10^3 per milligram (mg) of tissue.
Thymus, left paratracheal lymph node, and spleen were surgically removed, weighed, and homogenized in a glass Dounce homogenizer in Medium 199. Tissue fragments were removed by filtration through a chaperon. Bone marrow cell suspensions were prepared by irrigating the bone marrow canal of the pelvis with Medium 199 and homogenizing the irrigated solution. Suspensions from the different respective sources were purified by centrifuging the different cell samples on different aliquots of δ1.077 Ficoll-Urotrast for 40 minutes at 1500-1800 rpm. The lymphocyte interfaces from the gradients were collected into a siliconized test tube and washed in Medium 199. Residual red cells in the lymphocyte suspensions were lysed using 3% acetic acid in the presence of 0.05% Hessian-violet as a viability marker. Cell concentrations were determined microscopically using a Goryaev counting chamber. Cell concentrations were adjusted to 2.5×10^6/mL.
Ram erythrocytes (E) were washed 4× in saline (2000 rpm/10 min.) and suspended at a final concentration of 1% in Medium 199. For determinations of the percentage of E-rosette forming T-lymphocytes (E-RFC) in a sample, 0.1 mL of a prepared lymphocyte suspension (2.5×10^6/ml) was incubated with 0.1 mL of the 1% ram erythrocyte suspension at 37° C. for 10 min., centrifuged at 800-1000 rpm for 5 min., maintained at 4° C. for 2 hrs., and finally resuspended and counted in a Goryaev chamber. Activated T-lymphocytes (i.e., having increased E-RFC capacity) were determined by mixing the test lymphocyte suspension with E, immediately centrifuging for 5 min. at 800-1000 rpm, resuspending the cells and counting the rosettes formed in a Goryaev chamber.
Antibody-coated rabbit erythrocytes were used for determinations of EA-RFC (i.e., “activated” T-lymphocytes) according to the method of Stadecker, M. J., et al., J. Immunol. 11(6):1834-1837 (1973). Erythrocytes were prepared, incubated with an optimal dilution of anti-rabbit IgG, washed, and prepared as a 1% cell suspension in a manner analogous to those above (E-RFC, supra). EA-RFC assays were performed in a manner analogous to the description above, i.e., E-RFC, supra.
Determinations of EAC-RFC (i.e., B-lymphocytes) were performed according to the method described by Bianco, C., et al., J. Exp. Med. 132(4):702-720 (1970).

[2] = tested on: resident peritoneal macrophages; experiment: Innate immunity in CBA mice: thymic and spleen mass, splenic lymphocytes, resident peritoneal macrophages; assay type: in vivo; conditions: for Spleen / Thymus: CBA mice; for NBT Reduction, Induced: macrophages induced with complement opsonized zymosan; for NBT Reduction, Spontaneous / Neutral Red Uptake Absorbance: resident peritoneal macrophages

L-Glu-L-Trp
Decrease of T-lymphocytes in LN and BM ([1]; 1 mg/kg im, 5 days): 50% | Increase of splenic and thymus T-cells ([1]; 1 mg/kg im, 5 days): 2-9% | E-RFC ([1]; BM): 11.2 ± 2.3* 10^3/mg | EA-RFC ([1]; BM): 25.1 ± 1.9* 10^3/mg | EAC-RFC ([1]; BM): 13.9 ± 2.1 10^3/mg | E-RFC ([1]; LN): 81.4 ± 7.6* 10^3/mg | EA-RFC ([1]; LN): 61.7 ± 8.2 10^3/mg | EAC-RFC ([1]; LN): 173.3 ± 12.7 10^3/mg | E-RFC ([1]; PBL): 1.59 ± 0.78 10^9/L | EA-RFC ([1]; PBL): 0.82 ± 0.09 10^9/L | EAC-RFC ([1]; PBL): 0.79 ± 0.08* 10^9/L | E-RFC ([1]; SPL): 75.9 ± 6.8 10^3/mg | EA-RFC ([1]; SPL): 81.2 ± 7.4* 10^3/mg | EAC-RFC ([1]; SPL): 141.5 ± 22.6 10^3/mg | E-RFC ([1]; TYM): 448.1 ± 51.4 10^3/mg | EA-RFC ([1]; TYM): 542.6 ± 42.3 10^3/mg | EAC-RFC ([1]; TYM): 0 10^3/mg | Increase of complement receptor bearing cells (EAC-RFC) in blood ([1]; guinea pig, in vivo): 2 fold | CD2+ lymphocytes (E-RFC), BM ([1]; treated guinea pigs): 50% ↓ (p < 0.05) | CD2+ lymphocytes (E-RFC), LN ([1]; treated guinea pigs): 32% ↓ (p < 0.05) | CD2+ lymphocytes (E-RFC), Spleen ([1]; treated guinea pigs): ns | CD2+ lymphocytes (E-RFC), Thymus ([1]; treated guinea pigs): ns | Fc-receptor+ lymphocytes (EA-RFC), LN ([1]; treated guinea pigs): ns | Fc-receptor+ lymphocytes (EA-RFC), PBL ([1]; treated guinea pigs): ns | Fc-receptor+ lymphocytes (EA-RFC), Thymus ([1]; treated guinea pigs): ns | B cells Change (% peptide treated/% control) ([2]; 0.01 mg/kg ip daily 6 days): 1.0 | Splenic lymphocytes: B cells (%) ([2]; 0.01 mg/kg ip daily 6 days): 50.8 ± 3.0% | Splenic lymphocytes: T cells (%) ([2]; 0.01 mg/kg ip daily 6 days): 41.2 ± 2.1 % | T cells Change (% peptide treated/% control) ([2]; 0.01 mg/kg ip daily 6 days): ↑ 1.1 | Increase in neutral red uptake by macrophages ([2]; 0.01 mg/kg, not statistically different from control): 75% | Thymic weight ([2]; 1 mg/kg and 0.01 mg/kg ip, 6 days): statistically significant decrease in thymic weight at both dosages | B cells Change (% peptide treated/% control) ([2]; 1.0 mg/kg ip daily 6 days): 1.0 | Splenic lymphocytes: B cells (%) ([2]; 1.0 mg/kg ip daily 6 days): 52.4 ± 1.71% | Splenic lymphocytes: T cells (%) ([2]; 1.0 mg/kg ip daily 6 days): 34.8 ± 2.5% | T cells Change (% peptide treated/% control) ([2]; 1.0 mg/kg ip daily 6 days): ↓ 0.9 | Spleen ([2]; 0.01 mg/kg ip daily 6 days): 69.8 ± 2.6 mg | Thymus ([2]; 0.01 mg/kg ip daily 6 days): 14.8 ± 1.6 mg | Spleen ([2]; 1.0 mg/kg ip daily 6 days): 88.4 ± 4.4 mg | Thymus ([2]; 1.0 mg/kg ip daily 6 days): 14.1 ± 1.3 mg | Increase in NBT reducing activity on induction with complement-opsonized zymosan ([2]; macrophages from treated animals): 1.75 fold and 2 fold | NBT Reduction, Induced ([2]; 0.01 mg/kg): 0.205 ± 0.012 OD540 | NBT Reduction, Induced ([2]; 1 mg/kg): 0.116 ± 0.008 OD540 | NBT Reduction, Spontaneous ([2]; 0.01 mg/kg): 0.101 ± 0.002 OD540 | Neutral Red Uptake Absorbance ([2]; 0.01 mg/kg): 0.604 ± 0.031 | NBT Reduction, Spontaneous ([2]; 1 mg/kg): 0.059 ± 0.003 OD540 | Neutral Red Uptake Absorbance ([2]; 1 mg/kg): 0.469 ± 0.016
